Measurements taken from US20230265083A1, “Heterocycle CDK Inhibitors And Their Use Thereof” (Prelude Therapeutics Incorporated, priority 2020, published 2023).
pIC50: −log10 of the molar value.

Key:
CDK9/Cyclin T1 = molecular target: T1, CDK9/Cyclin T1 (Homo sapiens, UniProt P50750); assay: CDK9/CyclinT1 Enzymatic Activity Assay (TR-FRET); type: biochemical; conditions: ATP 1 mM, recombinant CDK9/Cyclin T1 1 nM, read-out: CDK9_T1 IC50
T1 construct: purchased ProQinase; host or cells: insect cell
T1 sequence (P50750 whole entry): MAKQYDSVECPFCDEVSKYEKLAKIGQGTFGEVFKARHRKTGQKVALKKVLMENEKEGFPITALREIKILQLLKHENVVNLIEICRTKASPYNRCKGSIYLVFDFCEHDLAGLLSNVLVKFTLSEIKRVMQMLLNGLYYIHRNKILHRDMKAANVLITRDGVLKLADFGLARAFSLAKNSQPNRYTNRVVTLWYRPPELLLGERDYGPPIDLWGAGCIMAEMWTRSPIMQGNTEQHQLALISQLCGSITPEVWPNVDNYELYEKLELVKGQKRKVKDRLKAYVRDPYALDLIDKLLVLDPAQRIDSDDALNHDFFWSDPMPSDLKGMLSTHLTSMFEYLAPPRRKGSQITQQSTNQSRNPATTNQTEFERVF
T1 sequence (O60563 whole entry partner): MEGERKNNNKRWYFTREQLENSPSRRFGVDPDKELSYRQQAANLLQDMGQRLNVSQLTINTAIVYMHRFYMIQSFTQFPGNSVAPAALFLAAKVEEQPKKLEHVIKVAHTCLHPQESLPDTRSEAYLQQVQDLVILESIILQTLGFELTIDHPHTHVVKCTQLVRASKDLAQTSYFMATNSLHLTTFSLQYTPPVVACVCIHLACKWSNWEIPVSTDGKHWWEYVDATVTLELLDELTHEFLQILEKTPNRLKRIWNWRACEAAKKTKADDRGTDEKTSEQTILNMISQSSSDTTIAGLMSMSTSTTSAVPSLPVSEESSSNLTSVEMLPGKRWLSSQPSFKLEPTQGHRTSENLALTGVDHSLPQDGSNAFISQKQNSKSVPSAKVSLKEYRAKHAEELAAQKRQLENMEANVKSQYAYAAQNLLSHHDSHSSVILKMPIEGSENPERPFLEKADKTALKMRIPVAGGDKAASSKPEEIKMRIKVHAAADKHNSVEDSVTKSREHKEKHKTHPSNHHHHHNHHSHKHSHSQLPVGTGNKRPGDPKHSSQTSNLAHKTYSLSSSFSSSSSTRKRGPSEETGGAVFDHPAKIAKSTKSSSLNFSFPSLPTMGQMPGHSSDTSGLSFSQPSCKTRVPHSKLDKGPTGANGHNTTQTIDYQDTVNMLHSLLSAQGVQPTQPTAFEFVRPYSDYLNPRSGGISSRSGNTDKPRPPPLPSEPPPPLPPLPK
Description: CDK9/CyclinT1 Enzymatic Activity Assay
(§1) The inhibitory activity of compounds was evaluated in vitro using TR-FRET assay with white 384-well low volume microplate (Greiner Bio-One). CDK9/Cyclin T1 catalyzed phosphorylation of peptides in the presence and absence of compounds was measured and used in IC50 determination. Recombinant protein complex CDK9/Cyclin T1, expressed from insect cell, was purchased from ProQinase. Testing compounds were dissolved in DMSO at 1 mM and tested in 9-dose IC50 mode. The reaction mixture was prepared by mixing CDK9/CyclinT1 (1 nM final), ULight-4E-BP1 (50 nM final, Perkinelmer, TRF0128-D), and ATP (1 mM final) in assay buffer (20 mM of HEPES pH 7.4, 1 mM of EGTA, 0.05% BSA, 0.005% Tween 20, and 1 mM TCEP). The compound of interest in DMSO was added to each well in 3-fold serial dilution by the dispenser (TECAN D300E) to make a 9.9 μL of the reaction mixture. After 20 minutes of preincubation at room temperature, 0.1 μL MgCl2 (10 mM final) was added to initiate the reaction. Following a 45 minutes incubation at 37° C., the reaction was stopped by the addition of 2 μL of quenching buffer consisting of Lance detection buffer (Perkinelmer CR97-100C), LANCE Ultra Europium-anti-P-4E-BP1 (Perkinelmer, TRF0216-D), EDTA, and incubate at room temperature for additional 60 minutes in the dark. The reaction signal was measured by Envision multimode plate reader (PerkinElmer, 2102-0010). IC50 values were determined by fitting the data to the standard 4 parameters with Hill Slope using GraphPad Prism software.

CDK4/Cyclin D1 = molecular target: T2, CDK4/Cyclin D1 (Homo sapiens, UniProt P11802); assay: CDK4/CyclinD1 Enzymatic Activity Assay (TR-FRET); type: biochemical; conditions: ATP 2 mM, recombinant CDK4/Cyclin D1 1 nM, read-out: CDK4_D1 IC50
T2 construct: purchased ProQinase; host or cells: insect cell
T2 sequence (P11802 whole entry): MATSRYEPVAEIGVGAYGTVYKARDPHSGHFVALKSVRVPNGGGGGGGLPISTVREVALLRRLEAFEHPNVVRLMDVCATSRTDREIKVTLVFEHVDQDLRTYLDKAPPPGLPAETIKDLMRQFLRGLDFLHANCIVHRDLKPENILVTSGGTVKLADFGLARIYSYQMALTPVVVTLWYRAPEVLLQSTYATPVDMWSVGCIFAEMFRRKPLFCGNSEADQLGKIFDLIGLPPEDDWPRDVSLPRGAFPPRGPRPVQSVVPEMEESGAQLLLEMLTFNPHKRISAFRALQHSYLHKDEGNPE
T2 sequence (P24385 whole entry partner): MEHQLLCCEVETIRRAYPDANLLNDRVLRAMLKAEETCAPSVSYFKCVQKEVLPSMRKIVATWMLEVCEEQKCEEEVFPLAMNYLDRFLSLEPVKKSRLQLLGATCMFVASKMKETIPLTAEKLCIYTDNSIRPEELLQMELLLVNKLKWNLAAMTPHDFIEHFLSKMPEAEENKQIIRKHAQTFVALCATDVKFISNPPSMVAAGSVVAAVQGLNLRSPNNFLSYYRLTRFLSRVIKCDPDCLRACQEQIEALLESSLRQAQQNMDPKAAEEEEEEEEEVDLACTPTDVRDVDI
Description: CDK4/CyclinD1 Enzymatic Activity Assay
as §1, with “Bio-One). CDK4/Cyclin D1” for “Bio-One). CDK9/Cyclin T1”, “complex CDK4/Cyclin D1,” for “complex CDK9/Cyclin T1,”, “mixing CDK4/CyclinD1” for “mixing CDK9/CyclinT1”, “ULight-4E-BP1 (100” for “ULight-4E-BP1 (50”, “ATP (2” for “ATP (1”

H929 cells = assay: CellTiter-Glo Protocol (Proliferation); type: cell-based; conditions: Homo sapiens, NCI-H929, 24 hours, read-out: PROLIFERATION_CTG_H929 IC50
Description: CellTiter-Glo® Protocol (Proliferation)
Dispense 10 μL aliquot of prepared H929 cells (1:1 ratio of cells: Trypan Blue (#1450013, Bio-Rad)) onto cell counting slide (#145-0011, Bio-Rad) and obtain cell density and cell viability using a cell counter (TC20, Bio-Rad). Remove appropriate volume of resuspended cells from culture flask to accommodate 4000 cells/well at 10 μL/well. Transfer H929 cells to 50 mL conical (#430290, Corning). Spin down at 1000 rpm for 5 min. using a tabletop centrifuge (SPINCHRON 15, Beckman). Discard supernatant and resuspend cell pellet in modified RPMI 1640 (#10-040-CV, Corning) cell culture media containing 10% FBS (F2422-500ML, Sigma), sodium pyruvate (100 mM) (#25-000-CL, Corning), HEPES buffer (1M) (#25-060-CL, Corning) and glucose (200 g/L) (A24940-01, Gibco) to a cell density of 400,000 cells/mL. Dispense 10 μL of resuspended H929 cells per well in 384-well small volume TC treated plate (#784080, Greiner Bio-one) using standard cassette (#50950372, Thermo Scientific) on Multidrop Combi (#5840310, Thermo Scientific) in laminar flow cabinet. Dispense compounds onto plates using a digital liquid dispenser (D300E, Tecan). Incubate plates in humidified tissue culture incubator at 37° C. for 24 hours. Add 10 μL of prepared CellTiTer-Glo® detection buffer (G7570, Promega) to each well of 384-well plate using small tube cassette (#24073295, Thermo Scientific) on Combi multi-drop, incubate at RT for 30-60 min. Read plates with a microplate reader (PheraStar, BMG Labtech) using 384 well luminescence mode. See Table B (Proliferation_CTG_H929).

CDK2/Cyclin A2 = molecular target: T3, CDK2/Cyclin A2 (Homo sapiens, UniProt P24941); assay: CDK2/CyclinA2 Enzymatic Activity Assay (TR-FRET); type: biochemical; conditions: ATP 1 mM, recombinant CDK2/Cyclin A2 1 nM, read-out: CDK2_A2 IC50
T3 construct: purchased ProQinase; host or cells: insect cell
Description: CDK2/CyclinA2 Enzymatic Activity Assay
as §1, with “(Greiner Bio-One). CDK2/Cyclin A2 catalyzed phosphorylation” for “(Greiner Bio-One). CDK9/Cyclin T1 catalyzed phosphorylation”, “protein complex CDK2/Cyclin A2, expressed from” for “protein complex CDK9/Cyclin T1, expressed from”, “by mixing CDK2/CyclinA2 (1 nM” for “by mixing CDK9/CyclinT1 (1 nM”, “20 minutes preincubation at” for “20 minutes of preincubation at”, “stopped by addition of” for “stopped by the addition of”

With `CC(=O)N[C@@H]1CCC[C@H](C(=O)Nc2cc(-c3cccc4c3CC(C)N4)c(Cl)cn2)C1` (stereo partly drawn) [Example 2, (1S,3R)-3-acetamido-N-(5-chloro-4-(2-methylindolin-4-yl)pyridin-2-yl)cyclohexane-1-carboxamide] as the molecule, how does the pIC50 (CDK9/Cyclin T1) read?
Its pIC50 is greater than 7.70.

What about the pIC50 (CDK4/Cyclin D1) of the same molecule?
Its pIC50 is 6.00 to 6.70.

And the pIC50 (H929 cells)?
The pIC50 was 6.70 to 7.70.

`Cc1cnc(NC(=O)[C@H]2CCC[C@@H](NC(=O)CC#N)C2)cc1-c1cccc2c1OCCN2` [Example 8, (1S,3R)-3-(2-cyanoacetamido)-N-(4-(3,4-dihydro-2H-benzo[b][1,4]oxazin-8-yl)-5-methylpyridin-2-yl)cyclohexane-1-carboxamide] was tested. Which pIC50 (CDK9/Cyclin T1) did it give?
The pIC50 was 6.70 to 7.70.

What about the pIC50 (CDK4/Cyclin D1) of the same molecule?
The pIC50 was less than 6.00.

What about the pIC50 (CDK2/Cyclin A2) of the same molecule?
Its pIC50 is less than 6.00.

What about the pIC50 (H929 cells) of the same molecule?
Its pIC50 is 6.00 to 6.70.

`Cc1cnc(NC(=O)[C@H]2CCC[C@@H](NC(=O)CC#N)C2)cc1-c1cccc2c1CC(C)(C)N2` [Example 6, (1S,3R)-3-(2-cyanoacetamido)-N-(4-(2,2-dimethylindolin-4-yl)-5-methylpyridin-2-yl)cyclohexane-1-carboxamide] was tested. Which pIC50 (CDK9/Cyclin T1) did it give?
The pIC50 was greater than 7.70.

What about the pIC50 (CDK4/Cyclin D1) of the same molecule?
The pIC50 was less than 6.00.

Which results are given for `CC1(C)COc2c(cccc2-c2cc(NC(=O)[C@H]3CCC[C@@H](NC(=O)CC#N)C3)ncc2Cl)N1` [Example 11, (1S,3R)—N-(5-chloro-4-(3,3-dimethyl-3,4-dihydro-2H-benzo[b][1,4]oxazin-8-yl)pyridin-2-yl)-3-(2-cyanoacetamido)cyclohexane-1-carboxamide]?
pIC50 (CDK9/Cyclin T1): > 7.70; pIC50 (CDK4/Cyclin D1): < 6.00

Which results are given for `CC(=O)N[C@@H]1CCC[C@H](C(=O)Nc2cc(-c3cccc4c3OCCN4)c(Cl)cn2)C1` [Example 4, (1S,3R)-3-acetamido-N-(5-chloro-4-(3,4-dihydro-2H-benzo[b][1,4]oxazin-8-yl)pyridin-2-yl)cyclohexane-1-carboxamide]?
pIC50 (CDK9/Cyclin T1): > 7.70; pIC50 (CDK4/Cyclin D1): < 6.00; pIC50 (H929 cells): 6.70 to 7.70

What does the source list for `N#CCC(=O)N[C@@H]1CCC[C@H](C(=O)Nc2cc(-c3cc(F)cc4c3OCCN4)c(Cl)cn2)C1` [Example 12, (1S,3R)—N-(5-chloro-4-(6-fluoro-3,4-dihydro-2H-benzo[b][1,4]oxazin-8-yl)pyridin-2-yl)-3-(2-cyanoacetamido)cyclohexane-1-carboxamide]?
pIC50 (CDK9/Cyclin T1): > 7.70; pIC50 (CDK4/Cyclin D1): 6.70 to 7.70; pIC50 (CDK2/Cyclin A2): 6.00 to 6.70

With `CC(=O)N[C@@H]1CCC[C@H](C(=O)Nc2cc(-c3cccc4c3CCN4)c(Cl)cn2)C1` [Example 1, (1S,3R)-3-acetamido-N-(5-chloro-4-(indolin-4-yl)pyridin-2-yl)cyclohexane-1-carboxamide] as the molecule, how does the pIC50 (CDK9/Cyclin T1) read?
The pIC50 was greater than 7.70.

What about the pIC50 (CDK4/Cyclin D1) of the same molecule?
Its pIC50 is 6.00 to 6.70.

And the pIC50 (H929 cells)?
Its pIC50 is 6.70 to 7.70.

`CC(=O)N[C@@H]1CCC[C@H](C(=O)Nc2cc(-c3cccc4c3CC(C)(C)O4)c(Cl)cn2)C1` [Example 14, (1S,3R)-3-acetamido-N-(5-chloro-4-(2,2-dimethyl-2,3-dihydrobenzofuran-4-yl)pyridin-2-yl)cyclohexane-1-carboxamide] was tested. Which pIC50 (CDK9/Cyclin T1) did it give?
The pIC50 was greater than 7.70.

What about the pIC50 (CDK4/Cyclin D1) of the same molecule?
The pIC50 was less than 6.00.

And the pIC50 (H929 cells)?
Its pIC50 is 6.00 to 6.70.

`CC(=O)N[C@@H]1CCC[C@H](C(=O)Nc2cc(-c3cccc4c3CCCN4)c(Cl)cn2)C1` [Example 3, (1S,3R)-3-acetamido-N-(5-chloro-4-(1,2,3,4-tetrahydroquinolin-5-yl)pyridin-2-yl)cyclohexane-1-carboxamide] was tested. Which pIC50 (CDK9/Cyclin T1) did it give?
Its pIC50 is 6.70 to 7.70.

And the pIC50 (CDK4/Cyclin D1)?
The pIC50 was less than 6.00.

And the pIC50 (H929 cells)?
Its pIC50 is 6.70 to 7.70.

With `N#CCC(=O)N[C@@H]1CCC[C@H](C(=O)Nc2cc(-c3cccc4c3OCCN4)c(Cl)cn2)C1` [Example 10, (1S,3R)—N-(5-chloro-4-(3,4-dihydro-2H-benzo[b][1,4]oxazin-8-yl)pyridin-2-yl)-3-(2-cyanoacetamido)cyclohexane-1-carboxamide] as the molecule, how does the pIC50 (CDK9/Cyclin T1) read?
The pIC50 was greater than 7.70.

What about the pIC50 (CDK4/Cyclin D1) of the same molecule?
The pIC50 was 6.70 to 7.70.

With `CC(=O)N[C@@H]1CCC[C@H](C(=O)Nc2cc(-c3cccc4c3OCC(C)(C)N4)c(Cl)cn2)C1` [Example 9, (1S,3R)-3-acetamido-N-(5-chloro-4-(3,3-dimethyl-3,4-dihydro-2H-benzo[b][1,4]oxazin-8-yl)pyridin-2-yl)cyclohexane-1-carboxamide] as the molecule, how does the pIC50 (CDK9/Cyclin T1) read?
The pIC50 was greater than 7.70.

What about the pIC50 (CDK4/Cyclin D1) of the same molecule?
Its pIC50 is less than 6.00.

What does the source list for `CC1COc2c(cc(F)cc2-c2cc(NC(=O)[C@H]3CCC[C@@H](NC(=O)CC#N)C3)ncc2Cl)N1` (stereo partly drawn) [Example 13, (1S,3R)—N-(5-chloro-4-(6-fluoro-3-methyl-3,4-dihydro-2H-benzo[b][1,4]oxazin-8-yl)pyridin-2-yl)-3-(2-cyanoacetamido)cyclohexane-1-carboxamide]?
pIC50 (CDK9/Cyclin T1): > 7.70; pIC50 (CDK4/Cyclin D1): 6.70 to 7.70

With `CC1(C)Cc2cccc(-c3cc(NC(=O)[C@H]4CCC[C@@H](NC(=O)CC#N)C4)ncc3Cl)c2O1` [Example 15, (1S,3R)—N-(5-chloro-4-(2,2-dimethyl-2,3-dihydrobenzofuran-7-yl)pyridin-2-yl)-3-(2-cyanoacetamido)cyclohexane-1-carboxamide] as the molecule, how does the pIC50 (CDK9/Cyclin T1) read?
Its pIC50 is greater than 7.70.

What about the pIC50 (CDK4/Cyclin D1) of the same molecule?
The pIC50 was less than 6.00.
